Experimental data taken from the NIST ThermoML archive (doi:10.1021/acs.jced.8b00176).

Assay: xn = mol fraction of the nth substance listed
Settings: 100 kPa, Liquid; for viscosity: Falling or rolling sphere viscometry; for speed of sound: Frequency=3 MHz, Single path-length method; for mass density: Vibrating tube method

CCCCn1cc[n+](C)c1.O=S(=O)([O-])C(F)(F)F [1-butyl-3-methylimidazolium trifluoromethanesulfonate] + CN(C)C=O
Settings | mass density [kg/m3] | speed of sound [m/s] | viscosity [mPa·s]
298.15 K, x1 = 0.1087 | 1042.02 | 1449.2 | 1.8
298.15 K, x1 = 0.203 | 1099.89 | 1437.7 | 3.67
298.15 K, x1 = 0.2978 | 1142.86 | 1425.7 | 5.22
298.15 K, x1 = 0.409 | 1181.65 | 1415 | 8.68
298.15 K, x1 = 0.4969 | 1206.07 | 1409.2 | 13.24
298.15 K, x1 = 0.603 | 1230.69 | 1403 | 20.91
298.15 K, x1 = 0.699 | 1249.54 | 1399.1 | 32.59
298.15 K, x1 = 0.809 | 1268.59 | 1396.7 | 52.15
298.15 K, x1 = 0.8928 | 1281.63 | 1395 | 68.08
298.15 K, x1 = 1 | 1297.46 | 1393.2 | 82.38
303.15 K, x1 = 0.1087 | 1037.25 | 1432.1 | 1.67
303.15 K, x1 = 0.203 | 1095.22 | 1421.9 | 3.23
303.15 K, x1 = 0.2978 | 1138.3 | 1410.9 | 4.67
303.15 K, x1 = 0.409 | 1177.22 | 1401.2 | 7.62
303.15 K, x1 = 0.4969 | 1201.73 | 1396 | 11.4
303.15 K, x1 = 0.603 | 1226.44 | 1390.5 | 17.79
303.15 K, x1 = 0.699 | 1245.37 | 1387 | 27.14
303.15 K, x1 = 0.809 | 1264.5 | 1384.8 | 42.41
303.15 K, x1 = 0.8928 | 1277.59 | 1383.5 | 54.9
303.15 K, x1 = 1 | 1293.46 | 1382.8 | 66.69
308.15 K, x1 = 0.1087 | 1032.47 | 1415.2 | 1.55
308.15 K, x1 = 0.203 | 1090.53 | 1406 | 2.93
308.15 K, x1 = 0.2978 | 1133.72 | 1395.9 | 4.2
308.15 K, x1 = 0.409 | 1172.78 | 1387.2 | 6.73
308.15 K, x1 = 0.4969 | 1197.38 | 1382.9 | 9.92
308.15 K, x1 = 0.603 | 1222.2 | 1378.1 | 15.23
308.15 K, x1 = 0.699 | 1241.2 | 1375 | 22.89
308.15 K, x1 = 0.809 | 1260.4 | 1373.3 | 35.16
308.15 K, x1 = 0.8928 | 1273.54 | 1372.1 | 44.83
308.15 K, x1 = 1 | 1289.47 | 1371.7 | 52.86
313.15 K, x1 = 0.1087 | 1027.69 | 1398.1 | 1.44
313.15 K, x1 = 0.203 | 1085.84 | 1390.4 | 2.64
313.15 K, x1 = 0.2978 | 1129.15 | 1381.4 | 3.81
313.15 K, x1 = 0.409 | 1168.33 | 1373.6 | 6.01
313.15 K, x1 = 0.4969 | 1193.03 | 1369.7 | 8.71
313.15 K, x1 = 0.603 | 1217.94 | 1365.6 | 13.22
313.15 K, x1 = 0.699 | 1237.03 | 1363 | 19.53
313.15 K, x1 = 0.809 | 1256.31 | 1361.7 | 29.38
313.15 K, x1 = 0.8928 | 1269.5 | 1360.9 | 37.11
313.15 K, x1 = 1 | 1285.47 | 1360.7 | 43.67
318.15 K, x1 = 0.1087 | 1022.88 | 1381.2 | 1.34
318.15 K, x1 = 0.203 | 1081.13 | 1375 | 2.4
318.15 K, x1 = 0.2978 | 1124.56 | 1367 | 3.47
318.15 K, x1 = 0.409 | 1163.87 | 1360.1 | 5.41
318.15 K, x1 = 0.4969 | 1188.67 | 1356.8 | 7.74
318.15 K, x1 = 0.603 | 1213.69 | 1353.3 | 11.6
318.15 K, x1 = 0.699 | 1232.85 | 1351.2 | 16.84
318.15 K, x1 = 0.809 | 1252.21 | 1350.3 | 24.86
318.15 K, x1 = 0.8928 | 1265.45 | 1349.7 | 31.09
318.15 K, x1 = 1 | 1281.47 | 1349.9 | 36.29
323.15 K, x1 = 0.1087 | 1018.08 | 1364.5 | 1.26
323.15 K, x1 = 0.203 | 1076.42 | 1359.6 | 2.2
323.15 K, x1 = 0.2978 | 1119.97 | 1352.6 | 3.17
323.15 K, x1 = 0.409 | 1159.41 | 1346.7 | 4.88
323.15 K, x1 = 0.4969 | 1184.31 | 1344 | 6.89
323.15 K, x1 = 0.603 | 1209.43 | 1341.1 | 10.21
323.15 K, x1 = 0.699 | 1228.67 | 1339.5 | 14.64
323.15 K, x1 = 0.809 | 1248.11 | 1339.1 | 21.29
323.15 K, x1 = 0.8928 | 1261.4 | 1338.7 | 26.39
323.15 K, x1 = 1 | 1277.48 | 1338.8 | 30.57
